Laboratory results: the supplement of paper PMC10307832

What was measured:
Assay in all cases: relative viability (nuclei count vs DMSO), 5 days (fraction); higher = more cells survive
[1] = compound: C1CN(CCN1)C2=CC=C(C=C2)C3=CN4C(=C(C=N4)C5=CC=NC6=CC=CC=C56)N=C3 [DM3189] + CC(=O)c1c(C)c2cnc(Nc3ccc(N4CCNCC4)cn3)nc2n(C2CCCC2)c1=O [Palbociclib] (partner 0.5 µM)
Outline: (§1)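 Lung cancer cell lines were pin-tool dosed in 1536-well plates on the day after seeding, with either a lone drug or a fixed anchor-drug dose plus five library-drug doses (not always all listed) in √10 steps. Nuclei were counted on 4× images after 5 days. Relative viability is the ratio of treated-well to vehicle-well nuclei counts, with each value a median of duplicate plates.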

[2] = compound: C1CN(CCN1)C2=CC=C(C=C2)C3=CN4C(=C(C=N4)C5=CC=NC6=CC=CC=C56)N=C3 [DM3189] + CC(C)C[C@H](NC(=O)[C@H](Cc1ccccc1)NC(=O)c1cnccn1)B(O)O [Bortezomib] (partner 0.002 µM)
Outline: as §1

[3] = compound: C1CN(CCN1)C2=CC=C(C=C2)C3=CN4C(=C(C=N4)C5=CC=NC6=CC=CC=C56)N=C3 [DM3189] + CS(=O)(=O)CCNCc1ccc(-c2ccc3ncnc(Nc4ccc(OCc5cccc(F)c5)c(Cl)c4)c3c2)o1 [Lapatinib] (partner 2 µM)
Outline: as §1

[4] = compound: C1CN(CCN1)C2=CC=C(C=C2)C3=CN4C(=C(C=N4)C5=CC=NC6=CC=CC=C56)N=C3 [DM3189] + CS(=O)(=O)N1CCN(Cc2cc3nc(-c4cccc5[nH]ncc45)nc(N4CCOCC4)c3s2)CC1 [Pictilisib] (partner 1 µM)
Outline: as §1

[5] = compound: C1CN(CCN1)C2=CC=C(C=C2)C3=CN4C(=C(C=N4)C5=CC=NC6=CC=CC=C56)N=C3 [DM3189] + Nc1nc2[nH]cc(CCc3ccc(C(=O)N[C@@H](CCC(=O)O)C(=O)O)cc3)c2c(=O)[nH]1 [Pemetrexed] (partner 0.2 µM)
Outline: as §1

Row | Cell Line | relative viability ([1]; first compound 0.08 µM) | relative viability ([1]; first compound 0.253 µM) | relative viability ([1]; first compound 0.8 µM) | relative viability ([1]; first compound 2.53 µM) | relative viability ([2]; first compound 0.08 µM) | relative viability ([2]; first compound 0.253 µM) | relative viability ([2]; first compound 0.8 µM) | relative viability ([2]; first compound 2.53 µM) | relative viability ([3]; first compound 0.08 µM) | relative viability ([3]; first compound 0.253 µM) | relative viability ([3]; first compound 0.8 µM) | relative viability ([3]; first compound 2.53 µM) | relative viability ([4]; first compound 0.08 µM) | relative viability ([4]; first compound 0.253 µM) | relative viability ([4]; first compound 0.8 µM) | relative viability ([4]; first compound 2.53 µM) | relative viability ([5]; first compound 0.08 µM) | relative viability ([5]; first compound 0.253 µM) | relative viability ([5]; first compound 0.8 µM) | relative viability ([5]; first compound 2.53 µM)
1 | NCI-H650 | 0.321 | 0.311 | 0.304 | 0.369 | 1 | 0.765 | 0.635 | 0.655 | 0.992 | 0.593 | 0.765 | 0.521 | 0.976 | 0.888 | 0.741 | 0.845 | 1.02 | 0.956 | 0.958 | 0.936
2 | NCI-H661 | 0.411 | 0.394 | 0.396 | 0.381 | 0.931 | 0.997 | 1.06 | 1.14 | 0.564 | 0.579 | 0.53 | 0.614 | 0.44 | 0.453 | 0.509 | 0.389 | 1.03 | 0.861 | 0.955 | 0.884
3 | NCI-H838 | 0.265 | 0.224 | 0.174 | 0.205 | 1 | 0.64 | 0.633 | 0.92 | 1.1 | 0.867 | 0.65 | 0.897 | 0.521 | 0.35 | 0.317 | 0.397 | 0.238 | 0.255 | 0.239 | 0.22
4 | NCI-H1355 | 0.357 | 0.416 | 0.349 | 0.387 | 1.21 | 1.22 | 0.992 | 1.17 | 1.07 | 0.972 | 0.819 | 0.919 | 0.539 | 0.399 | 0.311 | 0.362 | 1.03 | 0.986 | 0.821 | 1.03
5 | NCI-H1437 | 0.359 | 0.364 | 0.339 | 0.388 | 0.601 | 0.442 | 0.543 | 0.628 | 0.793 | 0.767 | 0.765 | 0.852 | 0.425 | 0.438 | 0.411 | 0.537 | 0.34 | 0.333 | 0.326 | 0.293
6 | NCI-H1650 | 0.407 | 0.292 | 0.349 | 0.309 | 0.248 | 0.163 | 0.228 | 0.189 | 0.838 | 0.806 | 0.71 | 0.777 | 0.773 | 0.582 | 0.526 | 0.477 | 0.311 | 0.347 | 0.351 | 0.37
7 | NCI-H1651 | 0.543 | 0.554 | 0.582 | 0.574 | 1.04 | 0.984 | 0.908 | 0.971 | 1.08 | 0.852 | 0.826 | 0.984 | 0.713 | 0.578 | 0.467 | 0.468 | 0.729 | 0.556 | 0.553 | 0.541
